From patent US20140155384A1, “COMPOUNDS AND METHODS OF TREATING DIABETES” (Medivation Technologies, Inc., priority 2011, published 2014) come the findings set out here.

Each structure is given as a SMILES string.

In assay [1] the target is T1, human recombinant adrenergic α2A receptor (Homo sapiens, UniProt P08913).
T1 construct: expressed in transfected cells; host or cells: insect Sf9 cells
T1 sequence (P08913 1-465): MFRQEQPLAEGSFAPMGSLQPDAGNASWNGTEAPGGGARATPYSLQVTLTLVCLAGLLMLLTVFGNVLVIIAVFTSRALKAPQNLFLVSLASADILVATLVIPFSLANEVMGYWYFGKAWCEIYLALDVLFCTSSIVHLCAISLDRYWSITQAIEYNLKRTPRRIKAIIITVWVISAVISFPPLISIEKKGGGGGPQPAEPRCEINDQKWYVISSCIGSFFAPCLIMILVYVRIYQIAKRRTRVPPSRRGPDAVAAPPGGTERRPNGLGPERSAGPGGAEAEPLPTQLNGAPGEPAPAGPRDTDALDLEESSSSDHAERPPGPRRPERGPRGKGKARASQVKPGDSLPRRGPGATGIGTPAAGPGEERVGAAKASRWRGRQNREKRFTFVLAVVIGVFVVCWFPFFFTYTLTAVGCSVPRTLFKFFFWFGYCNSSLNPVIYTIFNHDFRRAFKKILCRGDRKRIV
The assay can be described thus: Radioligand binding, adrenergic α2A receptor ([3H]MK-912). To be noted: 0.1 μM compound; Sf9 cells; 1 nM [3H]MK-912; read-out: Percentage inhibition of ligand binding, Adrenergic α2A. The procedure, abridged: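 Percent inhibition of specific [3H]MK-912 (1 nM) binding measured by filtration counting, compounds tested at ≤1 μM in 1% DMSO. Receptor: human α2A from Sf9 cells; incubation 60 min, 25 °C, pH 7.4; 10 μM WB-4101 defined nonspecific binding.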

Assay [2] has as its target T2, human recombinant adrenergic α2B receptor (Homo sapiens, UniProt P18089).
T2 construct: expressed in transfected cells; host or cells: CHO-K1
T2 sequence (P18089 1-450): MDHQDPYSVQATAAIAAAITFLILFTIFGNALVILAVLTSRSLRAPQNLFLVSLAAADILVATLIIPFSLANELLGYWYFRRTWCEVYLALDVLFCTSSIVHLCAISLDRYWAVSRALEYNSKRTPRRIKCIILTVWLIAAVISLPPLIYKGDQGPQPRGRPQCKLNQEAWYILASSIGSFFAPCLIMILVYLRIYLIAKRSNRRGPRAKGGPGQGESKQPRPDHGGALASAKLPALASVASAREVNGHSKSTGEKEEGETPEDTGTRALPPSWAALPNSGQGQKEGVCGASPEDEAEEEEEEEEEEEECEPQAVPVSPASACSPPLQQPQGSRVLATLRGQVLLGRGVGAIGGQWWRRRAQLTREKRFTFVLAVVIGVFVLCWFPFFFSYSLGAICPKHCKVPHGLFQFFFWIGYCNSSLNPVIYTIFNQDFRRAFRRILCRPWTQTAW
Description: Radioligand binding, adrenergic α2B receptor ([3H]Rauwolscine). To be noted: 0.1 μM compound, CHO-K1 cells, read-out: Percentage inhibition of ligand binding, Adrenergic α2B. The procedure, abridged:
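Percent inhibition of specific [3H]Rauwolscine (2.5 nM) binding, compounds at ≤1 μM, 1% DMSO vehicle, 10 μM prazosin defining nonspecific. Receptor: human α2B expressed in CHO-K1 cells, 60 min incubation at 25 °C in Tris-HCl pH 7.4 buffer (MgCl2, EDTA, BSA); filtered, washed, counted.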

Assay [3] addresses T3, human recombinant adrenergic α1D receptor (Homo sapiens, UniProt P25100).
T3 construct: expressed in transfected cells; host or cells: HEK-293
T3 sequence (P25100 1-572): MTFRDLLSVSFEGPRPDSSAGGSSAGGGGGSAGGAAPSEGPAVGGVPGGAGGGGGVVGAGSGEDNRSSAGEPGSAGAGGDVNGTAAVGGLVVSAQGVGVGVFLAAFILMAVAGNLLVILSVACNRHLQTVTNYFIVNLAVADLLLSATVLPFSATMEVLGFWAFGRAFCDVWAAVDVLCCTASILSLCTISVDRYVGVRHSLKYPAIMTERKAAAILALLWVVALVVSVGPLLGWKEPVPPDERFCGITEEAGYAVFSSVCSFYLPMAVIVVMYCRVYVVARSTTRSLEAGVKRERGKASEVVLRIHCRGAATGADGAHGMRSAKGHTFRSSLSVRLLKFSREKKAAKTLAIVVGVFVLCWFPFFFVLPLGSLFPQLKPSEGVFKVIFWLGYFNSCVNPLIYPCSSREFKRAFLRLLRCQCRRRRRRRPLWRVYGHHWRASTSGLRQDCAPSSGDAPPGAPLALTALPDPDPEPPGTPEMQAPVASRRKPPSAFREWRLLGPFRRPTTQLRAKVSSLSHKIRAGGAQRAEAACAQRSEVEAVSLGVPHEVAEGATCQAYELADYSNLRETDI
Description: Radioligand binding, adrenergic α1D receptor ([3H]Prazosin). To be noted: 0.1 μM compound; HEK-293 cells; 0.6 nM [3H]Prazosin; read-out: Percentage inhibition of ligand binding, Adrenergic α1D. As to the method:
Compounds were incubated with 0.6 nM [3H]Prazosin for 60 min at 25° C. Non-specific binding was estimated in the presence of 10 μM phentolamine. Receptor proteins were filtered and washed, the filters were then counted to determine [3H]Prazosin specifically bound. Compounds were screened at 1 μM or lower, using 1% DMSO as vehicle. Biochemical assay results are presented as the percent inhibition of specific binding in Table 2.

Assay [4] concerns the target T4, rat adrenergic α1B receptor (Rattus norvegicus, UniProt P15823).
T4 construct: rat adrenergic α1B receptor obtained from Wistar Rat liver; from tissue; host or cells: Wistar rat liver
T4 sequence (P15823 1-515): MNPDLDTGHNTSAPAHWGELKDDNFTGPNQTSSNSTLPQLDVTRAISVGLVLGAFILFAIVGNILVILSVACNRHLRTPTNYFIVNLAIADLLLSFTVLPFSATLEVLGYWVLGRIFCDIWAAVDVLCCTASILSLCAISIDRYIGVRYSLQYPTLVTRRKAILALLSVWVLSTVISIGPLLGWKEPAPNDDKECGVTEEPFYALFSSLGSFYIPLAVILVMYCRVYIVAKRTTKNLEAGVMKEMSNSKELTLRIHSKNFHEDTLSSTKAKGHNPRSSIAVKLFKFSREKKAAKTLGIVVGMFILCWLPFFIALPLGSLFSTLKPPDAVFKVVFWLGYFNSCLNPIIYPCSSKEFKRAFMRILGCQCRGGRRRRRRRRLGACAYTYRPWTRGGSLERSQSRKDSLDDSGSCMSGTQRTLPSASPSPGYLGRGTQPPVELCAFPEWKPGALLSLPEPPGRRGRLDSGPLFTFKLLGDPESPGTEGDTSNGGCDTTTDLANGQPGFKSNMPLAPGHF
The assay can be described thus: Radioligand binding, adrenergic α1B receptor ([3H]Prazosin). The settings on record: 0.1 μM compound, Wistar rat liver, read-out: Percentage inhibition of ligand binding, Adrenergic α1B. Summed up:
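Wistar rat liver α1B receptor preparation incubated with 0.25 nM [3H]prazosin and compound for 60 min at 25° C in 50 mM Tris-HCl pH 7.4, 0.5 mM EDTA; nonspecific binding defined with 10 μM phentolamine.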

By inhibition is commonly meant the change of the read-out against control, counted positive when it falls. Regarding `Cc1ccc2c(c1)c1c(n2-c2cscc2C(=O)N(C)C)CCN(C)C1` [Compound No. 152], the inhibition at 0.1 µM in assay [1] came to 9%; in assay [2], 51%; in assay [3], 16%; in assay [4], 10%.
With `Cc1ccc2c(c1)c1c(n2-c2cnc3ccccc3c2)CCN(C)C1` [Compound No. 88, 2,8-dimethyl-5-quinolin-3-yl-2,3,4,5-tetrahydro-1H-pyrido[4,3-b]indole], the inhibition at 0.1 µM in assay [1] turned out to be 15%; in assay [2], 80%; in assay [3], 20%; in assay [4], 36%.
On the same counts, the results for `CC(=O)Nc1ccc(-c2ccccc2-n2c3c(c4cc(C)ccc42)CN(C)CC3)cn1` [Compound No. 83, N-(5-(2-(2,8-dimethyl-3,4-dihydro-1H-pyrido[4,3-b]indol-5(2H)-yl)phenyl)pyridin-2-yl)acetamide] are 20%, 71%, 64% and 18%.
Take `Cc1ccc2c(c1)c1c(n2-c2cccc(-c3ccc(O)nc3)c2)CCN(C)C1` [Compound 52, 5-(3-(2,8-dimethyl-3,4-dihydro-1H-pyrido[4,3-b]indol-5(2H)-yl)phenyl)pyridin-2-ol]: the inhibition at 0.1 µM was 43% in assay [1], 36% in assay [2], -3% in assay [3] and 6% in assay [4].
In the case of `Cc1ccc2c(c1)c1c(n2-c2ccccc2-c2ccc(F)nc2)CCN(C)C1` [Compound No. 84, 5-(2-(6-fluoropyridin-3-yl)phenyl)-2,8-dimethyl-2,3,4,5-tetrahydro-1H-pyrido[4,3-b]indole], the inhibition at 0.1 µM in assay [1] worked out at 68%; in assay [2], 89%; in assay [3], 58%; in assay [4] it was 54%.
Consider `Cc1ccc2c(c1)c1c(n2-c2ccccc2-c2ccnn2C)CCN(C)C1` [Compound 32], for which the inhibition at 0.1 µM in assay [1] was 72%; in assay [2], 80%; in assay [3], 65%; in assay [4], 73%.
As to `Cc1ccc2c(c1)c1c(n2-c2ccc3ccncc3c2)CCN(C)C1` [Compound No. 74, 5-(isoquinolin-7-yl)-2,8-dimethyl-2,3,4,5-tetrahydro-1H-pyrido[4,3-b]indole], the inhibition at 0.1 µM in assay [1] stood at 38%; in assay [2] it was 70%; in assay [3], 18%; in assay [4], 41%.
Consider `Cc1cc(C)c2c(c1)c1c(n2-c2cscc2-c2ccncc2)CCN(C)C1` [Compound No. 149], for which the inhibition at 0.1 µM in assay [1] is -6%; in assay [2] it was 14%; in assay [3], 8%; in assay [4] it was 16%.
As for `Cc1ccc2c(c1)c1c(n2-c2cccc(-c3cccn3C)c2)CCN(C)C1` [Compound No. 69, 2,8-dimethyl-5-(3-(1-methyl-1H-pyrrol-2-yl)phenyl)-2,3,4,5-tetrahydro-1H-pyrido[4,3-b]indole], the inhibition at 0.1 µM in assay [1] stood at 39%; in assay [2], 3%; in assay [3] it was 9%; in assay [4], 11%.
On the same counts, the results for `Cc1ccc2c(c1)c1c(n2-c2cccc(-c3ccc4[nH]cnc4c3)c2)CCN(C)C1` [Compound 54, 5-(3-(1H-benzo[d]imidazol-5-yl)phenyl)-2,8-dimethyl-2,3,4,5-tetrahydro-1H-pyrido[4,3-b]indole] are 23%, 3%, -3% and 8%.
On the same counts, the results for `Cc1ccc2c(c1)c1c(n2-c2ccc(-c3ccnn3C)cn2)CCN(C)C1` [Compound No. 146, 2,8-dimethyl-5-(5-(1-methyl-1H-pyrazol-5-yl)pyridin-2-yl)-2,3,4,5-tetrahydro-1H-pyrido[4,3-b]indole] are 26%, 54%, 79% and 70%.
Take `Cc1ccc2c(c1)c1c(n2-c2ccccc2-c2cnn(C)c2)CCN(C)C1` [Compound No. 86, 2,8-dimethyl-5-(2-(1-methyl-1H-pyrazol-4-yl)phenyl)-2,3,4,5-tetrahydro-1H-pyrido[4,3-b]indole]: the inhibition at 0.1 µM in assay [1] amounted to 33%; in assay [2], 67%; in assay [3], 22%; in assay [4], 26%.
As for `Cc1ccc2c(c1)c1c(n2-c2ccccc2-c2ccc(C)s2)CCN(C)C1` [Compound No. 81, 2,8-dimethyl-5-(2-(5-methylthiophen-2-yl)phenyl)-2,3,4,5-tetrahydro-1H-pyrido[4,3-b]indole], the inhibition at 0.1 µM in assay [1] worked out at 88%; in assay [2] it was 95%; in assay [3], 36%; in assay [4] it was 37%.
With `Cc1csc(-c2cccc(-n3c4c(c5cc(C)ccc53)CN(C)CC4)c2)c1` [Compound No. 63, 2,8-dimethyl-5-(3-(4-methylthiophen-2-yl)phenyl)-2,3,4,5-tetrahydro-1H-pyrido[4,3-b]indole], the inhibition at 0.1 µM in assay [1] was determined as 30%; in assay [2], 11%; in assay [3], 5%; in assay [4], 2%.
